In patent US20080181971A1, “Combination Cancer Treatments Comprising Elsamitrucin and Other Agents” (priority 2007, published 2008):
Values joined by “and” are separate entries in the source; they are usually repeats but may differ in a detail not shown here. Identical values can stand only once. Like-named read-outs stand apart in the source and are kept apart here.

Columns and labels:
[1] = HCT116-e256 study: toxicity (body weight, treatment-related deaths, clinical signs); format: in vivo, nude mice
Excerpt: f. Toxicity. Animals were weighed daily for the first five days of the study and then twice weekly. […] Acceptable toxicity is defined as a group mean body-weight loss of less than 20% during the study and not more than one treatment-related (TR) death among ten treated animals. […] A death was classified as TR if attributable to treatment side effects as evidenced by clinical signs and/or necropsy, or may be classified as TR if due to unknown causes during the dosing period or within 10 days of the last dose. A death was classified as an NTR if there is no evidence that death was related to treatment side effects.

[2] = test system: HT29 human colon carcinoma cell line; assay: MTT growth inhibition assay, single agents and fixed-ratio combinations with elsamitrucin (Chou-Talalay, CalcuSyn), HT29; format: cell-based
Method: (§1) These individual agents and their combinations were evaluated for in vitro activity against the HT29 colon carcinoma, SKMES non-small cell lung carcinoma, and Daudi B-lymphoblastic cell lines. Cell growth in 96-well microculture plates was determined with a semi-automated MTT assay. Efficacies of drug combinations were analyzed according to the methods of Chou and Talalay, utilizing CalcuSyn software. Twenty-one in vitro experiments were conducted to determine the individual and combined growth inhibitory activities of elsamitrucin and the ten selected agents in the three cell lines.
(§2) b. Cell Lines. The human HT29 colon carcinoma, SKMES non-small cell lung carcinoma, and Daudi B-lymphoblastic cell lines were originally obtained from ATCC (American Type Culture Collection). These cell lines have been maintained and stored as frozen stocks. […] The medium for Daudi cells was additionally supplemented with 1 mM sodium pyruvate.
(§3) c. Growth Inhibition Assay. Anti-proliferative activities against the HT29, SKMES, and Daudi cell lines were evaluated in vitro by the MTT assay. Cells (1,500-2,000 cells/well) were seeded in a 96-well microculture plate in 180 pL of medium/well. […] DMSO was present in all wells at a final concentration of 0.1%. […] When the appropriate cell density was attained in the control wells, the plates were centrifuged briefly, and 100 pL of the growth medium was removed. The cell cultures were incubated with 50 μL of MTT reagent (1 mg/mL in Dulbecco's phosphate-buffered saline) for 4 hr at 37° C. The resultant purple formazan precipitate was solubilized with 200 μL of 0.04 N HCl in isopropanol.
(§4) The results of each experiment were stored in Excel format.
(§5) d. Preliminary Experiments: Design and Data Analysis. […] The initial experiments utilized serial three-fold dilutions of the drugs to produce ten test concentrations over a broad concentration range. Based on the initial results, a narrower concentration range was selected, and serial 1:1.5 dilutions were utilized to produce ten test concentrations. Experiments were repeated as needed.
(§6) For assays that utilized lower dilution factors to produce narrower concentration ranges, the results were analyzed with both Prism and CalcuSyn (as described below) to allow comparison of the IC50 and Da, values. The results guided the selection of appropriate concentration ranges and concentration ratios for the combination experiments.
(§7) e. Combination Experiments: Design and Data Analysis. The fixed-ratio design of Chou was used for the combination experiments. For each experiment, the drug solutions were mixed at a ratio that was expected to provide approximately equipotent concentrations, and the mixture was serially diluted with medium containing 1% DMSO to yield 10× stock solutions of the test concentrations. […] Each agent was tested individually and in combination at seven concentrations. The concentration range selected for each assay was designed to bracket the concentrations that produced half-maximal effects (ED50) with each single agent and their mixture. The concentrations used for the single-drug assays were twice as high as their concentrations in the mixture. Each assay was performed in quadruplicate. For each drug combination, the individual agents and their mixture were assayed on the same 96-well plate. The effects of the individual drugs and their combinations were analyzed by the method of Chou and Talalay. The results of each experiment were entered into CalcuSyn (BIOSOFT) for dose-effect analysis.
(§8) where Acontrol and Adrug are the respective absorbances of vehicle control and drug-treated wells in the MIT assay.
(§9) where the slope, m, is related to the sigmoidicity of the dose-effect curve, with m=1, >1, and <1 indicating hyperbolic, sigmoidal, and reverse sigmoidal shapes, respectively.

[3] = test system: SKMES human non-small cell lung carcinoma cell line; assay: MTT growth inhibition assay, single agents and fixed-ratio combinations with elsamitrucin (Chou-Talalay, CalcuSyn), SKMES; format: cell-based; settings: Homo sapiens
Method: as §1, §2, §3, §4, §5, §6, §7, §8, §9

[4] = test system: Daudi human lymphoma cell line; assay: MTT growth inhibition assay, single agents and fixed-ratio combinations with elsamitrucin (Chou-Talalay, CalcuSyn), Daudi; format: cell-based
Method: as §1, §2, §3, §4, §5, §6, §7, §8, §9

[5] = test system: HCT116 human colon carcinoma; settings: i.v., qod x5; cited from earlier work
[6] = Groups 2,4,6,8,10: elsamitrucin 10 mg/kg ip q4d x3, paclitaxel 15 mg/kg iv qod x5, cisplatin 2.7 mg/kg ip qd x5
[7] = Groups 3,5,7,9,11: elsamitrucin 5 mg/kg ip q4d x3, paclitaxel 7.5 mg/kg iv qod x5, cisplatin […] ip qd x5
[8] = Homo sapiens, HT-29, SPA-01 (HT29-e21), single agent, dilution 1:3, read-out: Prism IC50
[9] = Homo sapiens, HT-29, SPA-04 (HT29-e22), single agent, dilution 1:1.5, read-out: CalcuSyn Dm
[10] = Homo sapiens, HT-29, SPA-04 (HT29-e22), single agent, dilution 1:1.5, read-out: Prism IC50
[11] = Homo sapiens, HT-29, average of preliminary single-agent experiments, HT29, read-out: Average IC50, Dm value
[12] = SPA-02 (SKMES-e22), single agent, dilution 1:3, read-out: Prism IC50
[13] = SPA-03 (SKMES-e23), single agent, dilution 1:1.5, read-out: CalcuSyn Dm
[14] = SPA-03 (SKMES-e23), single agent, dilution 1:1.5, read-out: Prism IC50
[15] = average of preliminary single-agent experiments, SKMES, read-out: Average IC50, Dm value
[16] = Homo sapiens, Daudi, SPA-05 (Daudi-e01), single agent, dilution 1:3, read-out: Prism IC50
[17] = Homo sapiens, Daudi, average of preliminary single-agent experiments, Daudi, read-out: Average IC50, Dm value

Row | Compound | Day of Mean BW Nadir [1, 6] | Mean BW Nadir (lowest group mean body weight, as % change from Day 1) [1, 6] | No. of NTR (non-treatment-related death) [1, 6] | No. of TR (treatment-related death) [1, 6] | No. of NTR (non-treatment-related death) [1, 7] | No. of TR (treatment-related death) [1, 7] | IC50 [2, 8] | IC50 [2, 9] | IC50 [2, 10] | IC50 [2, 11] | IC50 [3, 12] | IC50 [3, 13] | IC50 [3, 14] | IC50 [3, 15] | IC50 [4, 16] | IC50 [4, 17] | also measured
1 | CO[C@@H]1[C@@H](N)[C@@H](O[C@H]2[C@H](Oc3cccc4c(O)c5c(=O)oc6ccc(C)c7c(=O)oc(c34)c5c67)O[C@H](C)[C@H](O)[C@]2(C)O)O[C@H](C)[C@@H]1O [Elsamitrucin, benzo(h)(1)benzopyrano(5,4,3-cde)(1)ebnzopyran-5,12-dione,10((2-O-(2-amino-2,6-dideoxy-3-O-methyl-alpha-D-galactopyranosyl)-6-deoxy-3-C-methyl-beta-D-galactopyranosyl)oxy)-6-hydroxy-1-methyl] | 7 days | −8.4% | 0 | 0 | 0 | 0 | 80 nM | 81 nM | 70 nM | 77 nM | 12 nM | 25.6 nM | 24.4 nM | 21 nM | 12 nM | 33 nM | Day of Mean BW Nadir [1, 7]: 7 days; Mean BW Nadir (lowest group mean body weight, as % change from Day 1) ([1]; Groups 3,5,7,9,11: elsamitrucin 5 mg/kg ip q4d x3, paclitaxel 7.5 mg/kg iv qod x5, cisplatin […] ip qd x5, — indicates no decrease in mean body weight was observed): −4.8%; group body weight loss ([1]; elsamitrucin 10 mg/kg, in monotherapy and in the combinations): modest group BW losses; IC50 ([2]; HT29, single agent on the same plate as the combination, read-out: Dm Value, Individually, Elsamitrucin): 36 nM and 118 nM and 96 nM and 58 nM and 54 nM and 67 nM and 39 nM and 40 nM and 103 nM and 51 nM and 37 nM and 29 nM and 86 nM and 73 nM and 50 nM and 71 nM and 124 nM and 32 nM and 27 nM; IC50 ([2]; Homo sapiens, HT-29, HT29, Table 1, read-out: average Dm determined in the preliminary experiments): 77 nM; IC50 ([2]; Homo sapiens, HT-29, HT29, single agent, ten selected assays of Table 2, read-out: average Dm): 63 nM; IC50 ([2]; Homo sapiens, HT-29, HT29, single agent, ten selected assays of Table 2, read-out: range of Dm): 36 to 118 nM; IC50 ([2]; Homo sapiens, HT-29, HT29 cells, single agent, read-out: average Dm): 63 nM; IC50 ([3]; SKMES cells, single agent, read-out: average Dm): 22 nM; IC50 ([3]; SKMES, single agent, ten assays of Table 5, read-out: average Dm): 22 nM; IC50 ([3]; SKMES, single agent, ten assays of Table 5, read-out: range of Dm): 11 to 53 nM; IC50 ([4]; Daudi growth inhibition, elsamitrucin alone, one value per plate, Table 8 (Supplement), read-out: Dm Value (95% Confidence Interval), Individually, Elsamitrucin): 23 nM and 30 nM and 28 nM and 15 nM and 13 nM and 34 nM and 26 nM; IC50 ([4]; Daudi growth inhibition, elsamitrucin alone, one value per plate, Table 8, read-out: Dm Value (95% Confidence Interval), Individually, Elsamitrucin): 30 nM and 28 nM and 13 nM and 34 nM and 26 nM and 23 nM; IC50 ([4]; Homo sapiens, Daudi, SPA-15 (Daudi-e03), single agent, dilution 1:1.5 (elsamitrucin 1:1.33), read-out: CalcuSyn Dm): 46 nM; IC50 ([4]; Homo sapiens, Daudi, SPA-15 (Daudi-e03), single agent, dilution 1:1.5 (elsamitrucin 1:1.33), read-out: Prism IC50): 40 nM; IC50 ([4]; Homo sapiens, Daudi, single agent, ten assays of Table 8, read-out: average Dm): 27 nM; IC50 ([4]; Homo sapiens, Daudi, single agent, ten assays of Table 8, read-out: range of Dm): 13 to 34 nM
2 | CC(=O)O[C@H]1C(=O)[C@@]2(C)[C@H]([C@H](OC(=O)c3ccccc3)[C@]3(O)C[C@H](OC(=O)[C@H](O)[C@@H](NC(=O)c4ccccc4)c4ccccc4)C(C)=C1C3(C)C)[C@]1(OC(C)=O)CO[C@@H]1C[C@@H]2O [Paclitaxel, paclitaxel] | 7 days | −4.6% | 0 | 0 | 0 | 0 | 1.6 nM | 2.3 nM | 2.4 nM | 2 nM | 1.1 nM | 2.8 nM | 2.6 nM | 2 nM | 3.6 nM | 4 nM | IC50 ([2]; Homo sapiens, HT-29, HT29, single agent on the same plate as the combination, read-out: Dm Value, Individually, Second Agent): 3.2 nM; IC50 ([3]; SKMES growth inhibition, second agent alone, one value per plate (Experiment ID), read-out: Dm Value (95% Confidence Interval), Individually, Second Agent): 3.5 nM; IC50 ([3]; SKMES, single agent on the same plate as the combination, read-out: Dm Value, Individually, Second Agent): 3.5 nM; optimum therapeutic dose identified in previous studies [5]: 30 mg/kg; IC50 ([4]; Homo sapiens, Daudi, Daudi growth inhibition, second agent alone, one value per plate, Table 8 (Supplement), read-out: Dm Value (95% Confidence Interval), Individually, Second Agent): 4 nM; IC50 ([4]; Homo sapiens, Daudi, Daudi growth inhibition, second agent alone, Table 8, read-out: Dm Value (95% Confidence Interval), Individually, Second Agent): 4 nM; IC50 ([4]; Homo sapiens, Daudi, SPA-08 (Daudi-e02), single agent, dilution 1:1.5, read-out: CalcuSyn Dm): 4.1 nM; IC50 ([4]; Homo sapiens, Daudi, SPA-08 (Daudi-e02), single agent, dilution 1:1.5, read-out: Prism IC50): 3.3 nM; IC50 ([4]; Homo sapiens, Daudi, read-out: approximate Dm values for the second drugs as single agents): ~4 nM
